In patent US11389463B2, “Antiviral nucleoside reverse transcriptase inhibitor” (priority 2017, dated 2022):
Counter-ions that a name gives are not always drawn.

Assays:
HBV = assay: Detection of anti-HBV activity in vitro (HepG2.2.15 cells, HBV DNA by quantitative PCR); assay type: cell-based; details: Hepatitis B virus, HBV DNA in supernatant on the eighth day, read-out: HBV activity and cytotoxicity data EC50
Experimental: Anti-cell viability assay: in vitro anti-hepatitis b virus activity of Example compounds was tested in HepG2.2.15 cells with TDF as a positive control compound. Cells were seeded into a 96-well plate on the first day; the compounds were added to treat the cells on the next day; and a new culture medium containing the compounds was replaced on the fifth day. On the eighth day, the supernatant was collected for DNA extraction. The content of HBV DNA was detected by quantitative PCR. Both test compound and TDF were subjected to a 3-fold serial dilution to get 8 concentration points in duplicate. The final concentration of DMSO in the culture medium was 0.5%. The formula for calculating the percentage of inhibition is as follows: Inhibition rate=(1−copy number of HBV in sample/copy number of HBV in DMSO control group)×100%

HIV-1 = assay: Detection of in vitro anti-HIV activity (HIV-1 infected MT-4 cells, CellTiter-glo); assay type: cell-based; details: Human immunodeficiency virus 1, MT4, 120 h, 5 days, read-out: HIV activity and cytotoxicity data EC50
Experimental: Compound treatment: the test compounds and the reference compounds were 2-fold diluted with DMSO and added to the cell culture plate. The test compounds and the reference compounds were tested at 8 concentrations in duplicate.

[1] = Cytotoxicity assay in uninfected MT-4 cells (CellTiter-glo); assay type: cell-based; details: human, read-out: HIV activity and cytotoxicity data CC50
Experimental: The data was analyzed by GraphPad Prism software, and the curve was fitted and EC50 and CC50 values were calculated. EC50 refers to the effective concentration that inhibits 50% virus production, 50% virus infectivity, or 50% virus-induced cellular effects. CC50 refers to the inhibitory concentration that reduces the cell growth or viability of uninfected cells by 50%.
Viral infection and cell treatment: HIV-1 and MT-4 cells were co-incubated at 37° C., in an incubator with 5% CO2 for 1 h. The infected cells were then seeded in a cell culture plate at a certain density. The final concentration of DMSO in the cell culture medium was 0.5%. The cells were incubated at 37° C., in an incubator with 5% CO2 for 5 days. The cells tested in the cytotoxicity assay were uninfected MT-4 cells, and other test conditions were with the same as that of the antiviral activity assay.
The activity assay of the cell: the cell viability was tested by using cell viability assay reagent CellTiter-glo (Promega). The raw data was used for calculating the anti-HIV-1 activity and cytotoxicity of the Compounds.

[2] = Cytotoxicity experiments of the anti-HBV test (Cell-titer Blue); assay type: cell-based; details: human, HepG2.2.15 cells, six days after treatment
Experimental: Cytotoxicity experiments: the arrangement of compounds on plate and compound-treatment process were the same as that of […] activity. Six days after the cells were treated by compounds, the cell activity was tested. Cell-titer Blue reagent was added to each well, the cells were incubated at 37° C. for 3 hours, and fluorescence values were read (560Ex/590 Em). The data were analyzed and the relative cell viability was calculated:
The percentage of cell viability was calculated using the following formula: % cell viability=(fluorescence reading of sample−fluorescence reading of culture control)/(fluorescence reading of DMSO control−fluorescence reading of culture control)×100.
Finally, the CC50 value of the compounds were calculated by the GraphPad Prism software.

[3] = Liver microsomal metabolism experiment, human liver microsomes; assay type: in vitro ADME; details: pH 7.4, 1 μM compound, 0.5 mg/mL protein, NADPH
Experimental: (§1) Microsomal experiments: human liver microsomes: 0.5 mg/mL, Xenotech; rat liver microsomes: 0.5 mg/mL, Xenotech; coenzyme (NADPH/NADH): 1 mM, Sigma Life Science; magnesium chloride: 5 mM, 100 mM phosphate buffer (pH 7.4).
(§2) Preparation of stock solution: powder of Example compounds were precisely weighed and dissolved in DMSO to 5 mM.
(§3) Preparation of phosphate buffer (100 mm, pH 7.4): 0.5M pre-formulated potassium dihydrogen phosphate (150 ml) and 0.5M potassium hydrogen phosphate (700 ml) were mixed well. The pH of the mixture was then adjusted to 7.4 with 0.5M potassium hydrogen phosphate solution. The resulting solution was 5-fold diluted with ultrapure water before use, and magnesium chloride was added to the solution, affording a phosphate buffer (100 mm), containing potassium phosphate (100 mM), magnesium chloride (3.3 mM), pH 7.4. […]
(§4) Data analysis: The peak area of the corresponding compounds and internal standard was detected by LC-MS/MS system, and the peak area ratio of compounds to internal standard was calculated. The slope was measured by plotting the natural log of the percentage of the remaining amount of the compounds versus time, and t1/2 and CLint were calculated according to the following formula, where V/M is equal to 1/protein concentration.

[4] = Liver microsomal metabolism experiment, rat liver microsomes; assay type: in vitro ADME; details: SD, pH 7.4, 1 μM compound, 0.5 mg/mL protein, NADPH
Experimental: as §1, §2, §3, §4

immune cells = details: relative to TDF; cited from earlier work
[5] = relative to TDF; cited from earlier work

Structure (SMILES): CCCCCCCCCCCCCCCCS(=S)CCO[P@@](=O)(CO[C@H](C)Cn1cnc2c(N)ncnc21)OCOC(=O)OC(C)C (single isomer, unassigned) [Compound T-3-1]
- EC50 (HBV): 0.1 to 0.4 µM
- EC50 (HIV-1): ≤ 0.005 µM
- CC50 at 5 days [1]: 0.1 to 0.5 µM
- CC50 at 6 days [2]: > 50 µM

Structure (SMILES): CCCCCCCCCCCCCCCCS(=S)CCO[P@](=O)(CO[C@H](C)Cn1cnc2c(N)ncnc21)OCOC(=O)OC(C)C (single isomer, unassigned) [Compound T-3-2]
- EC50 (HBV): 0.1 to 0.4 µM
- microsomal CLint at 1 μM ([3]; read-out: Human liver microsome experiment CLint): 71 µL/min/mg
- half-life at 1 μM ([3]; read-out: Human liver microsome experiment t1/2(min)): 19.5 min
- EC50 (HIV-1): ≤ 0.005 µM
- microsomal CLint at 1 μM ([4]; read-out: Rat liver microsome experiment CLint): 54.4 µL/min/mg
- half-life at 1 μM ([4]; read-out: Rat liver microsome experiment t1/2(min)): 25.5 min
- CC50 at 5 days [1]: 0.1 to 0.5 µM
- CC50 at 6 days [2]: > 50 µM

Structure (SMILES): CC(C)OC(=O)[C@H](C)N[P@](=O)(CO[C@H](C)Cn1cnc2c(N)ncnc21)Oc1ccccc1 [TAF, Tenofovir Alafenamide Fumarate]
- concentration of TFV in immune cells metabolized by TAF, times higher than that of TDF (immune cells): 4 times
- concentration of TFV in plasma metabolized by TAF, lower than that of TDF [5]: 90%
